Data from patent US8680159B2, “Bradykinin 1 receptor modulating compounds” (Gruenenthal GmbH, priority 2010, dated 2014).

target: T1, B1R receptor of the rat (CHO K1 cells stably transfected with the B1R gene of the rat) (Rattus norvegicus, UniProt P97583); assay: Functional study on the bradykinin receptor 1 (B1R), Ca2+ fluorescence (Fluo-4) FLIPR/Novostar assay, rB1R cells; assay type: cell-based; conditions: CHO-K1, 10 μM, read-out: % Inhibition (r-B1R) at 10 μM
T1 construct: expressed in transfected cells; host or cells: CHO K1 cells (Chinese hamster ovary), stably transfected
T1 sequence (P97583 1-337): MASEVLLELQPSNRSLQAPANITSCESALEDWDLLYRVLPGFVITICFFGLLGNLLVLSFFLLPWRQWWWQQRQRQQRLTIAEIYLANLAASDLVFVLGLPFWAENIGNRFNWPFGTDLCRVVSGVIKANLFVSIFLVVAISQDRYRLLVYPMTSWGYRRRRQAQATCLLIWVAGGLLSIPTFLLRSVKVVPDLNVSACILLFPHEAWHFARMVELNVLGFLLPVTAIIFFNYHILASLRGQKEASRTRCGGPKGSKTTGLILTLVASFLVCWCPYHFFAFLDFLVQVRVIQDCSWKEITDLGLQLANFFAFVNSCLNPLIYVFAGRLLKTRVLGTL
Procedure, shortened: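 Test compounds (10 μM) were added first and the Ca2+ rise was scored as % activation against Lys-Des-Arg9-bradykinin (≥50 nM, human) or Des-Arg9-bradykinin (≥1 μM, rat). After 6-20 min, the matching agonist was given at its EC80, and % inhibition relative to maximal achievable inhibition was calculated.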

inhibition at 10 µM | SMILES
109% | CN(C(=O)NC1CCCc2ccc(C(=O)N(C)C3CCN(c4ccncc4)CC3)cc21)c1ccc(Cl)cc1Cl (stereo not drawn) [CC_H-269, 8-[[(2,4-Dichlorophenyl)-methyl-carbamoyl]amino]-N-methyl-N-(1-pyridin-4-yl-piperidin-4-yl)-5,6,7,8-tetrahydro-naphthalene-2-carboxylic acid amide]
110% | CN(C(=O)c1ccc2c(c1)C(NS(=O)(=O)C1CCCCC1)CCC2)C1CCN(c2ccncc2)CC1 (stereo not drawn) [CC_H-270, 8-[(Cyclohexylsulfonyl)amino]-N-methyl-N-(1-pyridin-4-yl-piperidin-4-yl)-5,6,7,8-tetrahydro-naphthalene-2-carboxylic acid amide]
109% | CC(C)CC(=O)NC1CCCc2ccc(C(=O)N(C)C3CCN(c4ccncc4)CC3)cc21 (stereo not drawn) [CC_H-271, N-Methyl-8-(3-methyl-butanoylamino)-N-(1-pyridin-4-yl-piperidin-4-yl)-5,6,7,8-tetrahydro-naphthalene-2-carboxylic acid amide]
112% | CN(C(=O)c1ccc2c(c1)C(NC(=O)c1cc(C(F)(F)F)ccc1Cl)CCO2)C1CCN(c2ccncc2)CC1 (stereo not drawn) [CC_H-272, 4-[[2-Chloro-5-(trifluoromethyl)-benzoyl]amino]-N-methyl-N-(1-pyridin-4-yl-piperidin-4-yl)-3,4-dihydro-2H-chromene-6-carboxylic acid amide]
112% | Cc1ccc(F)c(C(=O)NC2CCOc3ccc(C(=O)N(C)C4CCN(c5ccncc5)CC4)cc32)c1Cl (stereo not drawn) [CC_H-273, 4-[(2-Chloro-6-fluoro-3-methyl-benzoyl)amino]-N-methyl-N-(1-pyridin-4-yl-piperidin-4-yl)-3,4-dihydro-2H-chromene-6-carboxylic acid amide]
91% | CN(C(=O)c1ccc2c(c1)C(NC(=O)C1CC1)CCO2)C1CCN(c2ccncc2)CC1 (stereo not drawn) [CC_H-274, 4-(Cyclopropanecarbonylamino)-N-methyl-N-(1-pyridin-4-yl-piperidin-4-yl)-3,4-dihydro-2H-chromene-6-carboxylic acid amide]
111% | CN(C(=O)c1ccc2c(c1)C(NC(=O)CC(C)(C)C)CCO2)C1CCN(c2ccncc2)CC1 (stereo not drawn) [CC_H-275, 4-(3,3-Dimethyl-butanoylamino)-N-methyl-N-(1-pyridin-4-yl-piperidin-4-yl)-3,4-dihydro-2H-chromene-6-carboxylic acid amide]
51% | COCC(=O)NC1CCOc2ccc(C(=O)N(C)C3CCN(c4ccncc4)CC3)cc21 (stereo not drawn) [CC_H-276, 4-[(2-Methoxy-acetyl]amino]-N-methyl-N-(1-pyridin-4-yl-piperidin-4-yl)-3,4-dihydro-2H-chromene-6-carboxylic acid amide]
100% | CC(=O)NC1CCOc2ccc(C(=O)N(C)C3CCN(c4ccncc4)CC3)cc21 (stereo not drawn) [CC_H-277, 4-Acetylamino-N-methyl-N-(1-pyridin-4-yl-piperidin-4-yl)-3,4-dihydro-2H-chromene-6-carboxylic acid amide]
103% | Cc1cccc(Cl)c1S(=O)(=O)NC1CCOc2ccc(C(=O)N(C)C3CCN(c4ccncc4)CC3)cc21 (stereo not drawn) [CC_H-278, 4-[[(2-Chloro-6-methyl-phenyl)sulfonyl]amino]-N-methyl-N-(1-pyridin-4-yl-piperidin-4-yl)-3,4-dihydro-2H-chromene-6-carboxylic acid amide]
111% | CN(C(=O)c1ccc2c(c1)C(NC(=O)c1cccc(C(F)(F)F)c1Cl)CCO2)C1CCN(c2ccncc2)CC1 (stereo not drawn) [CC_H-279, 4-[[2-Chloro-3-(trifluoromethyl)-benzoyl]amino]-N-methyl-N-(1-pyridin-4-yl-piperidin-4-yl)-3,4-dihydro-2H-chromene-6-carboxylic acid amide]
91% | CN(C(=O)c1ccc2c(c1)C(NC(=O)Nc1ccccc1Cl)CCO2)C1CCN(c2ccncc2)CC1 (stereo not drawn) [CC_H-280, 4-[[(2-Chlorophenyl)-carbamoyl]amino]-N-methyl-N-(1-pyridin-4-yl-piperidin-4-yl)-3,4-dihydro-2H-chromene-6-carboxylic acid amide]
99% | CN(C(=O)c1ccc2c(c1)C(NC(=O)Nc1cccc(Cl)c1)CCO2)C1CCN(c2ccncc2)CC1 (stereo not drawn) [CC_H-281, 4-[[(3-Chlorophenyl)-carbamoyl]amino]-N-methyl-N-(1-pyridin-4-yl-piperidin-4-yl)-3,4-dihydro-2H-chromene-6-carboxylic acid amide]
102% | CN(C(=O)c1ccc2c(c1)C(NC(=O)Nc1cccc(Cl)c1Cl)CCO2)C1CCN(c2ccncc2)CC1 (stereo not drawn) [CC_H-282, 4-[[(2,3-Dichloro-phenyl)-carbamoyl]amino]-N-methyl-N-(1-pyridin-4-yl-piperidin-4-yl)-3,4-dihydro-2H-chromene-6-carboxylic acid amide]
106% | CN(C(=O)c1ccc2c(c1)C(NC(=O)Nc1cc(Cl)ccc1Cl)CCO2)C1CCN(c2ccncc2)CC1 (stereo not drawn) [CC_H-283, 4-[[(2,5-Dichloro-phenyl)-carbamoyl]amino]-N-methyl-N-(1-pyridin-4-yl-piperidin-4-yl)-3,4-dihydro-2H-chromene-6-carboxylic acid amide]
75% | CN(C(=O)c1ccc2c(c1)C(NC(=O)Nc1cc(C(F)(F)F)ccc1Cl)CCO2)C1CCN(c2ccncc2)CC1 (stereo not drawn) [CC_H-285, 4-[[[2-Chloro-5-(trifluoromethyl)-phenyl]-carbamoyl]amino]-N-methyl-N-(1-pyridin-4-yl-piperidin-4-yl)-3,4-dihydro-2H-chromene-6-carboxylic acid amide]
87% | CN(C(=O)c1ccc2c(c1)C(NC(=O)Nc1ccc(Cl)cc1Cl)CCO2)C1CCN(c2ccncc2)CC1 (stereo not drawn) [CC_H-286, 4-[[(2,4-Dichlorophenyl)-carbamoyl]amino]-N-methyl-N-(1-pyridin-4-yl-piperidin-4-yl)-3,4-dihydro-2H-chromene-6-carboxylic acid amide]
69% | Cc1ccc(NC(=O)NC2CCOc3ccc(C(=O)N(C)C4CCN(c5ccncc5)CC4)cc32)cc1Cl (stereo not drawn) [CC_H-288, 4-[[(3-Chloro-4-methyl-phenyl)-carbamoyl]amino]-N-methyl-N-(1-pyridin-4-yl-piperidin-4-yl)-3,4-dihydro-2H-chromene-6-carboxylic acid amide]
77% | CN(C(=O)c1ccc2c(c1)C(NC(=O)Nc1ccc(F)c(Cl)c1)CCO2)C1CCN(c2ccncc2)CC1 (stereo not drawn) [CC_H-289, 4-[[(3-Chloro-4-fluoro-phenyl)-carbamoyl]amino]-N-methyl-N-(1-pyridin-4-yl-piperidin-4-yl)-3,4-dihydro-2H-chromene-6-carboxylic acid amide]
102% | CN(C(=O)NC1CCOc2ccc(C(=O)N(C)C3CCN(c4ccncc4)CC3)cc21)c1ccccc1Cl (stereo not drawn) [CC_H-292, 4-[[(2-Chlorophenyl)-methyl-carbamoyl]amino]-N-methyl-N-(1-pyridin-4-yl-piperidin-4-yl)-3,4-dihydro-2H-chromene-6-carboxylic acid amide]
109% | CC(C)CC(=O)NC1CCOc2ccc(C(=O)N(C)C3CCN(c4ccncc4)CC3)cc21 (stereo not drawn) [CC_H-293, N-Methyl-4-(3-methyl-butanoylamino)-N-(1-pyridin-4-yl-piperidin-4-yl)-3,4-dihydro-2H-chromene-6-carboxylic acid amide]
111% | Cc1cc(N2CCC(N(C)C(=O)c3ccc4c(c3)C(NC(=O)c3cc(F)ccc3Cl)CC4)CC2)cc(C)n1 (stereo not drawn) [CC_H-294, 3-[(2-Chloro-5-fluoro-benzoyl)amino]-N-[1-(2,6-dimethyl-pyridin-4-yl)-piperidin-4-yl]-N-methyl-2,3-dihydro-1H-indene-5-carboxylic acid amide]
111% | Cc1cc(N2CCC(N(C)C(=O)c3ccc4c(c3)C(NC(=O)c3c(F)ccc(C)c3Cl)CC4)CC2)cc(C)n1 (stereo not drawn) [CC_H-295, 3-[(2-Chloro-6-fluoro-3-methyl-benzoyl)amino]-N-[1-(2,6-dimethyl-pyridin-4-yl)-piperidin-4-yl]-N-methyl-2,3-dihydro-1H-indene-5-carboxylic acid amide]
112% | Cc1cc(N2CCC(N(C)C(=O)c3ccc4c(c3)C(NC(=O)c3cc(Cl)ccc3Cl)CC4)CC2)cc(C)n1 (stereo not drawn) [CC_H-296, 3-[(2,5-Dichloro-benzoyl)amino]-N-[1-(2,6-dimethyl-pyridin-4-yl)-piperidin-4-yl]-N-methyl-2,3-dihydro-1H-indene-5-carboxylic acid amide]
110% | Cc1cc(N2CCC(N(C)C(=O)c3ccc4c(c3)C(NC(=O)C3CCCCC3)CC4)CC2)cc(C)n1 (stereo not drawn) [CC_H-297, 3-(Cyclohexanecarbonylamino)-N-[1-(2,6-dimethyl-pyridin-4-yl)-piperidin-4-yl]-N-methyl-2,3-dihydro-1H-indene-5-carboxylic acid amide]
101% | Cc1cc(N2CCC(N(C)C(=O)c3ccc4c(c3)C(NC(=O)C3CC3)CC4)CC2)cc(C)n1 (stereo not drawn) [CC_H-298, 3-(Cyclopropanecarbonylamino)-N-[1-(2,6-dimethyl-pyridin-4-yl)-piperidin-4-yl]-N-methyl-2,3-dihydro-1H-indene-5-carboxylic acid amide]
110% | Cc1cc(N2CCC(N(C)C(=O)c3ccc4c(c3)C(NC(=O)CC(C)(C)C)CC4)CC2)cc(C)n1 (stereo not drawn) [CC_H-299, 3-(3,3-Dimethyl-butanoylamino)-N-[1-(2,6-dimethyl-pyridin-4-yl)-piperidin-4-yl]-N-methyl-2,3-dihydro-1H-indene-5-carboxylic acid amide]
